# In PubChem BioAssay AID540268 (Broad Institute, 2011):
# Active and inactive are the calls of the source. The rule behind the calls is not given here.
# Assay: growth inhibition of yeast carrying parasite Hsp90, dose response, anti-malarial Hsp90 inhibitor project, ATP luminescence, 48 h, cherry-picked samples (AID 540268);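 for activity change, negative = inhibition: 0% = neutral control wells and -100% = positive control wells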
# Conditions: yeast expressing the parasite Hsp90, ATP luminescence
Compound,AC50,"activity change, negative = inhibition (at 26 µM (top of the series))"
CC(=O)SC(C[N+](=O)[O-])c1cn(C(C)=O)c2ccccc12 (configuration not stated),1.57 µM,
C=CC(n1cncn1)C(O)(c1ccccc1)c1ccccc1 (configuration not stated),1.03 µM,
O=C1[C@@H]2C(c3cccnc3)=NO[C@@H]2C(=O)N1c1ccc(Br)cc1,3.1 µM,
CCCCN(CCCC)CCC(O)c1cc2c(Cl)cc(Cl)cc2c2cc(C(F)(F)F)ccc12 (configuration not stated),7.42 µM,
Oc1c(C(Nc2cccc(C(F)(F)F)c2)c2ccncc2)ccc2cccnc12 (configuration not stated),5.15 µM,
O=C1C=CC(=O)N1CCNc1ncc(C(F)(F)F)cc1Cl,0.674 µM,
CCCCCCCCCCCCCCCC[n+]1ccc(/C=N/O)cc1,< 0.195 µM,
Cc1ccc(NC(=O)c2cc(N3C(=O)C=CC3=O)ccc2N2CCOCC2)cc1,0.605 µM,
COc1ccc(-c2cc(C(=O)N3CCN(c4ccccc4F)CC3)c3ccccc3n2)c(OC)c1,4.09 µM,
O=C1c2cc(F)ccc2-n2c1nc1ccccc1c2=O,2.96 µM,
CCOc1ccccc1-c1c2cc(O)c(=O)cc-2oc2cc(O)c(O)cc12,4.21 µM,
Cc1cccc2cc(CN(Cc3nnnn3C3CCCCC3)C3CCCC3)c3nnnn3c12,2.2 µM,
CCCC(=O)NC(c1ccco1)c1cc(Cl)c2cccnc2c1O (configuration not stated),4.36 µM,
O=C1S/C(=C/c2ccc(N3CCOCC3)o2)C(=O)N1Cc1c(F)cccc1Cl,,23.4% (inactive)
C=C1C(=O)C23CCC4C(C)(C(=O)OC)CCCC4(C)C2CCC1(O)C3 (configuration not stated),1.54 µM,
Oc1ccc(Br)cc1/C=N/Nc1ccccn1,2.67 µM,
Cc1cccc(N2C(=O)C=CC2=O)c1,0.372 µM,
CC(=O)N(C)c1ccc(OCC(O)Cn2c3ccc(Cl)cc3c3cc(Cl)ccc32)cc1 (configuration not stated),4.56 µM,
Cc1ccc(-n2nnnc2C(Cl)(Cl)c2nnnn2-c2ccc(C)cc2)cc1,1.12 µM,
CN(C)CC1CC/C(=C\c2ccc(O)cc2)C1=O (configuration not stated),5.54 µM,
S=C1SCN(Cc2cccnc2)CN1Cc1cccnc1,4.07 µM,
COc1ccc(NC(=O)c2cc([N+](=O)[O-])ccc2O)cc1,5.24 µM,
O=C(Nc1nc(-c2cccs2)cs1)c1ccc([N+](=O)[O-])o1,5.69 µM,
Cc1ccc(O)c(-c2cc(-c3cccc(F)c3)n[nH]2)c1,17.2 µM,

Compound,AC50,"activity change, negative = inhibition (at 26 µM (top of the series))"
O=C1/C(=C\c2ccc(Cl)cc2)CCC1CNc1ccc(Cl)cc1 (configuration not stated),< 0.195 µM,
O=C1Nc2ccc(Br)cc2C12NNc1ccccc1O2 (configuration not stated),1.46 µM,
O=C(/C(=C/O)N=Nc1cccc(C(F)(F)F)c1)c1ccccc1,4.14 µM,
CC(=NNc1nc2ccccc2s1)c1ncccn1,2.36 µM,
COc1cc(SC)ccc1C(=O)Nc1nc2ccccc2[nH]1,1.96 µM,
NC(=O)c1ccc(N=Cc2ccc([N+](=O)[O-])s2)cc1,1.48 µM,
COc1ccc(O)c(-c2cc(-c3cccc(Br)c3)n[nH]2)c1,7.23 µM,
O=[N+]([O-])c1cc(CN2CCN(c3cccc(C(F)(F)F)c3)CC2)c2cccnc2c1O,4.42 µM,
CN1C(=O)C(N=Nc2ccc([N+](=O)[O-])cc2)SC1=S (configuration not stated),3.87 µM,
N#C/C(=C\c1cccc([N+](=O)[O-])c1)C(=O)NCc1ccc(Cl)cc1,6.75 µM,
Cc1[nH]c(N=Nc2ccccc2)nc1N=Nc1ccccc1,4.41 µM,
O=C(/C=C/c1ccc(F)cc1)NC(=S)NNC(=O)c1cnccn1,2.71 µM,
O=C(NCc1ccc2c(c1)OCO2)c1ccc(Br)cc1,4.46 µM,
CN1CCN(C(c2ccc(Br)cc2)c2cc(Cl)c3cccnc3c2O)CC1 (configuration not stated),0.535 µM,
Cc1c(Cl)sn(-c2ccc(Cl)cc2)c1=O,< 0.195 µM,
COc1cc(C=NO)nc(-c2ccccn2)c1,2.32 µM,
Oc1cccc2ccc(/C=C/c3ccccc3Br)nc12,16.9 µM,
Cc1cc2c(cc1C)CSC(c1c(O)ccc3ccccc13)SC2,4.26 µM,
CCC(=O)OCOc1ccc(/C=C2/CCC(CN(C)C)C2=O)cc1 (configuration not stated),2.89 µM,
CCc1sc(C(=O)Nc2nc(-c3ccccn3)cs2)cc1C,8.12 µM,
CCCCOc1ccc(C(=O)NNC(=S)NC(=O)CC)cc1,4.2 µM,
Cc1ccc(-c2onc3ccc(C(=O)/C=C/N(C)C)cc23)cc1,5.98 µM,
O=C(/C=C/c1cccc([N+](=O)[O-])c1)c1ccco1,4.27 µM,
